Test results taken from patent US20030195168A1, “Therapeutic agents - III” (priority 2000, published 2003).

Experiments:
[1] = system: Human peripheral blood mononuclear cells (PBMC); assay: Phagocytic activity of PBMC, nitroblue tetrazolium uptake; type: cell-based; settings: 100 ng/mL; 20 min; controls <2%
Procedure: Human peripheral blood mononuclear cells (PBMC) prepared by standard Ficoll separation comprise approximately 5% monocytes. PBMC were incubated with dihydroethidium, a reduced form of the dye which becomes fluorescent when oxidized by a respiratory burst, then treated in 10% FCS-RPMI 1640 at 37° C. for 15 min with crude E. peplus extract diluted 1/1000 or 100 ng/mL TPA and analyzed by flow cytometry using conventional methods (Handbook of Flow Cytometry Methods, p. 151) The mean channel numbers for fluorescence were 618 (controls) and 818 (E. peplus extract diluted 1/1000). […] Phagocytic activity was determined by a conventional method (Hudson and Hay, Practical Immunology, 3rd edition, p. 74). […] The average of three fields gave figures of <2% (controls), 10% (TPA) and 8.7% (E. peplus sap) cells stained blue.

rat brain PKC = assay: PepTag non-radioactive PKC kinase activity assay; settings: FIG. 1; TPA 100-0.01 ng/ml; ether extract final dilution 1 in 5; aqueous layer and crude sap diluted 1/25
Procedure: The kinase activity of rat brain PKC (Promega) was determined using the Peptag™ Non-Radioactive Protein Kinase Kit (Promega). Using agarose gel electrophoresis the technique visualises the opposing electrostatic charge of a fluorescently labeled peptide ([sequence]) compared to the phosphorylated version of the same peptide.
The reaction mixture was separated by gel electrophoresis, showing migration of the unreacted substrate (a) to the anode (top), and the product (b), which is more negatively charged because of phosphorylation by PKC, moving towards the cathode (bottom).

PKCζ = target: T1, PKCζ (Homo sapiens, UniProt Q05513); assay: EGFP-PKC isoform translocation in HeLa cells; type: cell-based; settings: one hour, TPA 100 ng/mL, bryostatin-1 5 pg/mL, PEP003 2.25 μg/mL (5 μM), PEP005 670 μg/mL (1.5 μM)
T1 construct: host or cells: HeLa cells
T1 sequence (Q05513 1-592): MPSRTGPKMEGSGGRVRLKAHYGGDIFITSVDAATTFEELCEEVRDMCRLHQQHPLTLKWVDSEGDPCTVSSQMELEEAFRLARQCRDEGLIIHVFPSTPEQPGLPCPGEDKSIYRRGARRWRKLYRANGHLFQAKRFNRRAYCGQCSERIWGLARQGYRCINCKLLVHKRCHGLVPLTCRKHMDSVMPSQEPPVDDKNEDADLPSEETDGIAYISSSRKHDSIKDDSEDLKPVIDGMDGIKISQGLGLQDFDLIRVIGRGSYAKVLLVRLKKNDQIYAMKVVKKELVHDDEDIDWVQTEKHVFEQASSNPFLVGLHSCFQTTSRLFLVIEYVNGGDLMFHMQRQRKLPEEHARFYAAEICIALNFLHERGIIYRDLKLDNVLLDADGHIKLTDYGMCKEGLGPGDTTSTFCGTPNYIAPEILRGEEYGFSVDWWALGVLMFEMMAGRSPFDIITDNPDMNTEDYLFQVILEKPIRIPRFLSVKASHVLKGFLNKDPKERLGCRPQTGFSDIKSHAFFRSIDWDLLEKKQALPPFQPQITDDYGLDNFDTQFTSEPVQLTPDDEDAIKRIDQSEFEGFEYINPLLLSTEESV
Procedure: (§1) Five EGFP-PKC isoforms (Clontech) were available for this experiment, enabling the screening of the three predominant PKC families (i.e. classical, novel and atypical PKCs). The members of the various PKC families are α, β, and γ (classical), θ (novel) and ζ (atypical).
(§2) HeLa cells were plated out in a 24-well plate containing coverslips and transfected with PKC isoforms fused to EGFP, using a commercially available effectine-transfection kit (QIAGEN, Pty. Ltd.). Cells were exposed to the transfection reagents for 16-24 hr. Subsequently, transfected cells were treated for one hour with TPA (100 ng/mL), bryostatin-1 (5 pg/mL), PEP003 (2.25 μg/mL; 5 μM) or PEP005 ([…]) 1.5 μM). Following treatment, cells were fixed on coverslips and mounted on glass slides. The slides were subsequently examined visually by fluorescence microscopy, photographed, and over 150 cells were counted/treatment/PKC isoform. Counted cells were classified according to the localisation of the PKC-EGFP fluorescence as either cytoplasmic or plasma membrane using ImagePro™ 4.1 (FIG. 5). […] The number of these cells was also counted. Results are presented as an average and standard deviation of percentages of cells (Table 1).

PKCθ = target: T2, PKCθ (Homo sapiens, UniProt Q04759); assay: EGFP-PKC isoform translocation in HeLa cells; type: cell-based; settings: one hour, TPA 100 ng/mL, bryostatin-1 5 pg/mL, PEP003 2.25 μg/mL (5 μM), PEP005 670 μg/mL (1.5 μM)
T2 construct: host or cells: HeLa cells
T2 sequence (Q04759 whole entry, canonical isoform): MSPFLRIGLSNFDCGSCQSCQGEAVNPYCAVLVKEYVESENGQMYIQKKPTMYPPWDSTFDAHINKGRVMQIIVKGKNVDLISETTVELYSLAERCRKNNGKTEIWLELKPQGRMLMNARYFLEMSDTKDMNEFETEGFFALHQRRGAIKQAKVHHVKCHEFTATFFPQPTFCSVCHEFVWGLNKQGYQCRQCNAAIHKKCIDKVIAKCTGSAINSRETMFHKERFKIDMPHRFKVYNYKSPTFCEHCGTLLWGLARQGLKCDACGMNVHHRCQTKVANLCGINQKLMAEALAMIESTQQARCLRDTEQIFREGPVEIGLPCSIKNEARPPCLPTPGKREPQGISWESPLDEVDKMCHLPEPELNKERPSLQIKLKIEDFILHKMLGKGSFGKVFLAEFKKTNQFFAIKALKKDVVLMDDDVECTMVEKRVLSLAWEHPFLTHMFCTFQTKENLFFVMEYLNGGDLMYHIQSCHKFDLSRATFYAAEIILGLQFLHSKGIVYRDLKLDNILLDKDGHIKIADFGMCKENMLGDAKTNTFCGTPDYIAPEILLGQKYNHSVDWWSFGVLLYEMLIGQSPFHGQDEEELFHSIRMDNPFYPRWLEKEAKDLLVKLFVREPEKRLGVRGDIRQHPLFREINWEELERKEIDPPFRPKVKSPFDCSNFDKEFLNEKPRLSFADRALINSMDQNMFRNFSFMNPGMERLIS
Procedure: as §1, §2

PKCβ = target: T3, PKCβ (Homo sapiens, UniProt P05771); assay: EGFP-PKC isoform translocation in HeLa cells; type: cell-based
T3 construct: host or cells: HeLa cells
T3 sequence (P05771 whole entry, species assumed, canonical isoform): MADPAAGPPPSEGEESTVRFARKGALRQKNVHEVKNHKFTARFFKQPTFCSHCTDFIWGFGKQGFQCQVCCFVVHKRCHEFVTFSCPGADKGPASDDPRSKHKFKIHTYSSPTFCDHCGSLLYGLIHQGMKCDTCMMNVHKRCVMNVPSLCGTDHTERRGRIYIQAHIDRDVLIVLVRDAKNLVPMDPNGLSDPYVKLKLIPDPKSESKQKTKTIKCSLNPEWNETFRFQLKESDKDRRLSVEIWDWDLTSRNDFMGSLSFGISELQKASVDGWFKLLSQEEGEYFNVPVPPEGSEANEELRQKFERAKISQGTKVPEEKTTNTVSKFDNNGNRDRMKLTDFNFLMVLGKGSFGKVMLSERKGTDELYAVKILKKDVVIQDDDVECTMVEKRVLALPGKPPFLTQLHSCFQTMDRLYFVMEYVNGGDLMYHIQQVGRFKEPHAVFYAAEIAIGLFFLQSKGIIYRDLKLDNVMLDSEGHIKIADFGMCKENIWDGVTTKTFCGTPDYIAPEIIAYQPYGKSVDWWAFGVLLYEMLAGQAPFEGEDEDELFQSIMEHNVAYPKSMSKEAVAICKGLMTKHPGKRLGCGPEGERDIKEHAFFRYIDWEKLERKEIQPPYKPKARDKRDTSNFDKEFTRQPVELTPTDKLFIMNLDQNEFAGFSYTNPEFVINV
Procedure: as §1, §2

PKCγ = target: T4, PKCγ (Homo sapiens, UniProt P05129); assay: EGFP-PKC isoform translocation in HeLa cells; type: cell-based
T4 construct: host or cells: HeLa cells
Procedure: as §1, §2

[2] = one hour, TPA 100 ng/mL, bryostatin-1 5 pg/mL, PEP003 2.25 μg/mL (5 μM), PEP005 670 μg/mL (1.5 μM)

CCCCCCCCCCCCCC(=O)O[C@@H]1[C@@H](C)[C@@]2(O)[C@@H](C=C(CO)C[C@]3(O)C(=O)C(C)=C[C@@H]23)C2C(C)(C)[C@@]21OC(C)=O (single isomer, unassigned) [TPA]
cells stained blue (NBT) [1]: 10%
activation of PKC (phosphorylation of fluorescent PepTag substrate) (rat brain PKC): showed activation of PKC
translocation of PKCζ (PKCζ): fail to induce translocation
translocation of PKCθ (PKCθ): translocated
number of PKCβ transfected cells with Golgi-like fluorescence (PKCβ; one hour treatment): increase in Golgi-Tike fluorescence
translocation of PKCβ to the plasma membrane (PKCβ; [2]): translocated from the cytoplasm to the plasma membrane
number of PKCγ transfected cells displaying Golgi-like fluorescence (PKCγ; one hour treatment): increase in the number of cells displaying Golgi-like fluorescence
translocation of PKCγ to the plasma membrane (PKCγ; [2]): translocated from the cytoplasm to the plasma membrane
